Assay results reported in US9896435B2, “N-pyrrolidinyl,N′-pyrazolyl-urea, thiourea, guanidine and cyanoguanidine compounds as TrkA kinase inhibitors” (Array BioPharma Inc., priority 2012, dated 2018).

Columns and labels:
Assay in all cases: KinaseProfiler off-target kinase profiling
Assay type in all cases: biochemical
Settings in all cases: 10 μM, ATP near Km
AKT1 = AKT1 (Homo sapiens (Human), UniProt P31749)
Experimental: (§1) Two representative compounds (Example 2, 14) of the invention were tested for off-target kinase activity at a concentration of 10 μM by Millipore, Inc. in their KinaseProfiler™ service against all the kinases available in their full kinase panel. These compounds were run in duplicate at a concentration of ATP near the Km for each individual kinase according to Millipore's specifications. The results are shown in Table B. Data are reported as percent of control (POC) and are the average of the two replicates.

PAK4 = PAK4 (Homo sapiens (Human), UniProt O96013)
Experimental: as §1

CDK5/p35 = CDK5/p35 (Homo sapiens (Human), UniProt Q00535)
Experimental: as §1

MAP4K2 = MAP4K2 (Homo sapiens (Human), UniProt Q12851)
Experimental: as §1

p38beta = p38beta (Homo sapiens (Human), UniProt Q15759)
Experimental: as §1

ALK4 = ALK4 (Homo sapiens (Human), UniProt P36896)
Experimental: as §1

TAO1 = TAO1 (Homo sapiens (Human), UniProt Q7L7X3)
Experimental: as §1

LIMK1 = LIMK1 (Homo sapiens (Human), UniProt P53667)
Chain of LIMK1 (P53667 whole entry): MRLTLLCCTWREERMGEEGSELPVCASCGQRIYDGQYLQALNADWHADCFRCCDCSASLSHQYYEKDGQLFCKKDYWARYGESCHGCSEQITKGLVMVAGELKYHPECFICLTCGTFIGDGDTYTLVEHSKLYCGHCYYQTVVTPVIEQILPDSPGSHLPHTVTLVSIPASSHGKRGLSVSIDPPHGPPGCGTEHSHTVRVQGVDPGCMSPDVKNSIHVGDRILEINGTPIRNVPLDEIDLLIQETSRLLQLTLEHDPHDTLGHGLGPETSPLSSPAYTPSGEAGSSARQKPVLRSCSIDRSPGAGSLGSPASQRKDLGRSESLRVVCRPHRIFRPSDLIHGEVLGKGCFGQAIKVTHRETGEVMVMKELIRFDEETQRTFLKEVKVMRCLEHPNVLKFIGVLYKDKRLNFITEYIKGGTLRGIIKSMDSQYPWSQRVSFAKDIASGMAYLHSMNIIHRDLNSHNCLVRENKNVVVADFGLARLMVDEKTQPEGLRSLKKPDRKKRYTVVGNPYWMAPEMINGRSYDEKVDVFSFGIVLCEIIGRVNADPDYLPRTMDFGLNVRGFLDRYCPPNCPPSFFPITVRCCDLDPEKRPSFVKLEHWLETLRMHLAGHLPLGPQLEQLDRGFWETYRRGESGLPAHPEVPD
Experimental: as §1

ALK = ALK (Homo sapiens (Human), UniProt Q9UM73)
Experimental: as §1

PKD1 = PKD1 (Homo sapiens (Human), UniProt Q15139)
Experimental: as §1

Plk3 = Plk3 (Homo sapiens (Human), UniProt Q9H4B4)
Experimental: as §1

MST3 = MST3 (Homo sapiens (Human), UniProt Q9Y6E0)
Experimental: as §1

CK1gamma2 = CK1gamma2 (Homo sapiens (Human), UniProt P78368)
Experimental: as §1

IRAK1 = IRAK1 (Homo sapiens (Human), UniProt P51617)
Experimental: as §1

Rsk4 = Rsk4 (Homo sapiens (Human), UniProt Q9UK32)
Experimental: as §1

MSK1 = MSK1 (Homo sapiens (Human), UniProt O75582)
Experimental: as §1

Bmx = Bmx (Homo sapiens (Human), UniProt P51813)
Chain of Bmx (P51813 whole entry): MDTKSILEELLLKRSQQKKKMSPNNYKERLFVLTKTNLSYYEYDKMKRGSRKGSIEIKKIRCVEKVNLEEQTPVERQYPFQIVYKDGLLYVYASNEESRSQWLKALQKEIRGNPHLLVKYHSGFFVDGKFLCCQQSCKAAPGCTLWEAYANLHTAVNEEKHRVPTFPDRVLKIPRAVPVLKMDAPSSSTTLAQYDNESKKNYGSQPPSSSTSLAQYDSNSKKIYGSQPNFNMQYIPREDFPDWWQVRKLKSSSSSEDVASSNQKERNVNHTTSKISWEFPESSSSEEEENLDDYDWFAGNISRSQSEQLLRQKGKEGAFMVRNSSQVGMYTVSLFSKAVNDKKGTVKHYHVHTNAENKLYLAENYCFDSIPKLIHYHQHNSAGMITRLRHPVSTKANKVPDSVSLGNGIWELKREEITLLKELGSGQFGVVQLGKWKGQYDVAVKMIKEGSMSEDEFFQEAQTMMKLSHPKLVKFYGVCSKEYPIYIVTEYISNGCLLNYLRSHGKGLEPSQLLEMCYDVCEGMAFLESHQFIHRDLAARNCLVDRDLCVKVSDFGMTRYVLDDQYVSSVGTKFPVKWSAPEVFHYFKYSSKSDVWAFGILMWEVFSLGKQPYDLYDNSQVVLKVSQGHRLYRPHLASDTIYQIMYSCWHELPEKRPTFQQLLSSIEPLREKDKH
Experimental: as §1

EphA1 = EphA1 (Homo sapiens (Human), UniProt P21709)
Experimental: as §1

PAK2 = PAK2 (Homo sapiens (Human), UniProt Q13177)
Experimental: as §1

PAK5 = PAK5 (Homo sapiens (Human), UniProt Q9P286)
Chain of PAK5 (Q9P286 whole entry): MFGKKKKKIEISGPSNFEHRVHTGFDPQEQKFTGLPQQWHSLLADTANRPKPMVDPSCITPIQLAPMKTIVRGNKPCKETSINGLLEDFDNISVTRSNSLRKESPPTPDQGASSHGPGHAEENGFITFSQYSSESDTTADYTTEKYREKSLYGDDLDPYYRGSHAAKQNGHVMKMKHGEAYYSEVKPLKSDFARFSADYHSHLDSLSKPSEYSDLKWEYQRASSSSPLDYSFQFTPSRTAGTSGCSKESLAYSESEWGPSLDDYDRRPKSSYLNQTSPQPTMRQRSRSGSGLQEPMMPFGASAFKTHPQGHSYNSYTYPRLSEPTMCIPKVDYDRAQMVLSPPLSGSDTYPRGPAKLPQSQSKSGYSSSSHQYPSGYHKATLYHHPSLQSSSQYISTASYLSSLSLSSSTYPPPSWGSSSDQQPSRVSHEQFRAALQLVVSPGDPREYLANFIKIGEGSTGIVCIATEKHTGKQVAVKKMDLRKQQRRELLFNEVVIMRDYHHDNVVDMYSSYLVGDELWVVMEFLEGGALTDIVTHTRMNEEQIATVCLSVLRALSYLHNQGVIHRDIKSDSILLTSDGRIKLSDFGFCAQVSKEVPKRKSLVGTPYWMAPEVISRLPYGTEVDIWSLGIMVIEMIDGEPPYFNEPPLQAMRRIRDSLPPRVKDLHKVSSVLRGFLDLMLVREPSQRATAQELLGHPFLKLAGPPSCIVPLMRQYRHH
Experimental: as §1

CDK1/cyclinB = CDK1/cyclinB (Homo sapiens (Human), UniProt P06493)
Experimental: as §1

AKT3 = AKT3 (Homo sapiens (Human), UniProt Q9Y243)
Chain of AKT3 (Q9Y243 whole entry): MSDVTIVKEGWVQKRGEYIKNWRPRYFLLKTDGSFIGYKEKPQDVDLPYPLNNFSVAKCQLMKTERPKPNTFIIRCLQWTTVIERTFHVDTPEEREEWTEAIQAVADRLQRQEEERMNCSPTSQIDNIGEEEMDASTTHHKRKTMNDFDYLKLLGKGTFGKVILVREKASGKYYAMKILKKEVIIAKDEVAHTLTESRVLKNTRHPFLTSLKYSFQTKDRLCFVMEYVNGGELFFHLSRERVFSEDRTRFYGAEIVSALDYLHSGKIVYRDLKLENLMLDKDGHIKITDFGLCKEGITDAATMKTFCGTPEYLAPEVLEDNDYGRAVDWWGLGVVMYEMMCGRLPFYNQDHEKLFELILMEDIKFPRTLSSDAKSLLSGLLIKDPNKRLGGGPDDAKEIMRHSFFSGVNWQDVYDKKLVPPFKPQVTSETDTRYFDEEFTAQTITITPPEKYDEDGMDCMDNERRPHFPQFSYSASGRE
Experimental: as §1

MuSK = MuSK (Homo sapiens (Human), UniProt O15146)
Experimental: as §1

EphA2 = EphA2 (Homo sapiens (Human), UniProt P29317)
Experimental: as §1

FGFR1 = FGFR1 (Homo sapiens (Human), UniProt P11362)
Experimental: as §1

AMPK(A1/B1/G1) = AMPK(A1/B1/G1) (Homo sapiens (Human), UniProt Q13131)
Experimental: as §1

IGF-1R Activated = IGF-1R Activated (Homo sapiens (Human), UniProt P08069)
Chain of IGF-1R Activated (P08069 959-1367 limits assumed): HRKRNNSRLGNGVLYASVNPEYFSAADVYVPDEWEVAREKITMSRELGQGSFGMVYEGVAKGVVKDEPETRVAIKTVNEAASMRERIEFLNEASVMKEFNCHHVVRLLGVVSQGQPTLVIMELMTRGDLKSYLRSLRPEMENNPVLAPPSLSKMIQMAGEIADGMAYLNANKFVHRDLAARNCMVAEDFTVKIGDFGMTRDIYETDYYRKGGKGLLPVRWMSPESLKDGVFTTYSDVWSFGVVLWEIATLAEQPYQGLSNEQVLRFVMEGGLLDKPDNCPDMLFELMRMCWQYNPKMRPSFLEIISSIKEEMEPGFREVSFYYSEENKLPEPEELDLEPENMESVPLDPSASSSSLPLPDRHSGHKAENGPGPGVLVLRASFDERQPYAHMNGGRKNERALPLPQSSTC
Experimental: as §1

Pim-1 = Pim-1 (Homo sapiens (Human), UniProt P11309)
Experimental: as §1

PRKG1beta = PRKG1beta (Homo sapiens (Human), UniProt Q13976)
Experimental: as §1

Mer = Mer (Homo sapiens (Human), UniProt Q12866)
Experimental: as §1

PTK5 = PTK5 (Homo sapiens (Human), UniProt P42685)
Chain of PTK5 (P42685 whole entry): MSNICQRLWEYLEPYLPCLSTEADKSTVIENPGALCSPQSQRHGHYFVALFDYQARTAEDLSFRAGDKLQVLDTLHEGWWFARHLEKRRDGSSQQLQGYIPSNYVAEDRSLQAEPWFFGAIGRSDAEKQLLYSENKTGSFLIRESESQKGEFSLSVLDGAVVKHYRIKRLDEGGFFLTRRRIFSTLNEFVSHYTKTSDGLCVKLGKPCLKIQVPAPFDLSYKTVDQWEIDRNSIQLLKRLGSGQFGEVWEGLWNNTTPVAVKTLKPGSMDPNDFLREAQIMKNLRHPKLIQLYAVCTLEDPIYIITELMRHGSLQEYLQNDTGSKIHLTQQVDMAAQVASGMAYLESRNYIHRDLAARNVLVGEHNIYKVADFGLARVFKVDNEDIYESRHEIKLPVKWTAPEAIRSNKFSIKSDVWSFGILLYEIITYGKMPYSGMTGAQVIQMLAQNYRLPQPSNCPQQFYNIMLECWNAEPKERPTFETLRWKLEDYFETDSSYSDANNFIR
Experimental: as §1

Ron = Ron (Homo sapiens (Human), UniProt Q04912)
Chain of Ron (Q04912 25-1400): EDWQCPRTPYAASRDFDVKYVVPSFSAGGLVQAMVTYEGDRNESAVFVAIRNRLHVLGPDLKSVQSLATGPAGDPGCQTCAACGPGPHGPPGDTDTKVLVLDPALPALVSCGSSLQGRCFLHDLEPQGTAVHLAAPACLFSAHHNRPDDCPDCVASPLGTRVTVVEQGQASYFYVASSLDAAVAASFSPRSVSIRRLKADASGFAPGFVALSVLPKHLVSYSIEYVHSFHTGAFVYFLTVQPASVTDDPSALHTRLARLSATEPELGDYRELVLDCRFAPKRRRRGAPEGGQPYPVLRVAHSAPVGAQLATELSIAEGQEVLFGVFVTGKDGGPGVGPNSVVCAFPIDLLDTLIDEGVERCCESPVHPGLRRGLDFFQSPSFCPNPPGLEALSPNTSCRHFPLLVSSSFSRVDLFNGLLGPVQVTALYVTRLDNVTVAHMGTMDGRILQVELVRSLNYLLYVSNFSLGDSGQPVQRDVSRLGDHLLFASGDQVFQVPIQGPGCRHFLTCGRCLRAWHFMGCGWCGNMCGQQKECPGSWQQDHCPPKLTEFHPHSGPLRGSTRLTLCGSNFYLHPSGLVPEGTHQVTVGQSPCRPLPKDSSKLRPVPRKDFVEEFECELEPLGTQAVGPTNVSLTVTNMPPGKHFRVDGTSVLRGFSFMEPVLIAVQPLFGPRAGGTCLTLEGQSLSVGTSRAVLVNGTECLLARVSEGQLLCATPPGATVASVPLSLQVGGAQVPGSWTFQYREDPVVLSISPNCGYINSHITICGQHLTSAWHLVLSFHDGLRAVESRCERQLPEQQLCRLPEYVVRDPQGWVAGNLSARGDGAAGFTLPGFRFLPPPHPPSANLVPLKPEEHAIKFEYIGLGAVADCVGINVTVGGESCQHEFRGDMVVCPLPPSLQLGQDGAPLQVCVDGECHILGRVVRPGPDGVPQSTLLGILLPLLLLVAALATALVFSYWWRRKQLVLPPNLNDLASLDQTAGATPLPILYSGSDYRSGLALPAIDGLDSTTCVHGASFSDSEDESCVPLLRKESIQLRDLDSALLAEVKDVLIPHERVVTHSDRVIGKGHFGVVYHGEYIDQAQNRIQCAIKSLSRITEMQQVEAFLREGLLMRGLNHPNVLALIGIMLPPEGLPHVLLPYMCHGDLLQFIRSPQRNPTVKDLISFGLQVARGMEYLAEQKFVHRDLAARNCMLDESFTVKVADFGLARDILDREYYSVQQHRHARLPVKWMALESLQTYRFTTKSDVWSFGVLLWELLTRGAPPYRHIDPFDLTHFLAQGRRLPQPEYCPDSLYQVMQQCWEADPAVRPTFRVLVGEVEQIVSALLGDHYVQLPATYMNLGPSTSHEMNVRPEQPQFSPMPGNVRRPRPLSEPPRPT
Experimental: as §1

Ret = Ret (Homo sapiens (Human), UniProt P07949)
Experimental: as §1

IGF-1R = IGF-1R (Homo sapiens (Human), UniProt P08069)
Experimental: as §1

SRPK2 = SRPK2 (Homo sapiens (Human), UniProt P78362)
Experimental: as §1

VRK2 = VRK2 (Homo sapiens (Human), UniProt Q86Y07)
Experimental: as §1

CK1gamma3 = CK1gamma3 (Homo sapiens (Human), UniProt Q9Y6M4)
Experimental: as §1

FGFR2 = FGFR2 (Homo sapiens (Human), UniProt P21802)
Experimental: as §1

CDK7/cyclinH/MAT1 = CDK7/cyclinH/MAT1 (Homo sapiens (Human), UniProt P50613)
Experimental: as §1

ZAP-70 = ZAP-70 (Homo sapiens (Human), UniProt P43403)
Experimental: as §1

Row | SMILES | Avg POC (AKT1) | Avg POC (PAK4) | Avg POC (CDK5/p35) | Avg POC (MAP4K2) | Avg POC (p38beta) | Avg POC (ALK4) | Avg POC (TAO1) | Avg POC (LIMK1) | Avg POC (ALK) | Avg POC (PKD1) | Avg POC (Plk3) | Avg POC (MST3) | Avg POC (CK1gamma2) | Avg POC (IRAK1) | Avg POC (Rsk4) | Avg POC (MSK1) | Avg POC (Bmx) | Avg POC (EphA1) | Avg POC (PAK2) | Avg POC (PAK5) | further results
1 | COCCN1C[C@@H](NC(=O)Nc2c(C)c(-c3ccnc(C)c3)nn2-c2ccccc2)[C@H](c2ccc(F)c(F)c2)C1 [Example 2, 1-((3S,4R)-4-(3,4-difluorophenyl)-1-(2-methoxyethyl)pyrrolidin-3-yl)-3-(4-methyl-3-(2-methylpyridin-4-yl)-1-phenyl-1H-pyrazol-5-yl)urea] | 109.5 POC | 103.5 POC | 113 POC | 105.5 POC | 101.5 POC | 112.5 POC | 102.5 POC | 100 POC | 111 POC | 96 POC | 101 POC | 101 POC | 73.5 POC | 112.5 POC | 136.5 POC | 102.5 POC | 115.5 POC | 97 POC | 95.5 POC | 103 POC | Avg POC (CDK1/cyclinB): 104 POC; Avg POC (AKT3): 110 POC; Avg POC (MuSK): 103.5 POC; Avg POC (EphA2): 110.5 POC; Avg POC (FGFR1): 106.5 POC; Avg POC (AMPK(A1/B1/G1)): 118 POC; Avg POC (IGF-1R Activated): 102 POC; Avg POC (Pim-1): 99.5 POC; Avg POC (PRKG1beta): 97.5 POC; Avg POC (Mer): 90.5 POC; Avg POC (PTK5): 108 POC; Avg POC (Ron): 122.5 POC; Avg POC (Ret): 106.5 POC; Avg POC (IGF-1R): 63 POC; Avg POC (SRPK2): 96.5 POC; Avg POC (VRK2): 101.5 POC; Avg POC (CK1gamma3): 87.5 POC; Avg POC (FGFR2): 91.5 POC; Avg POC (CDK7/cyclinH/MAT1): 88 POC; Avg POC (ZAP-70): 93 POC
2 | COCCN1C[C@@H](NC(=O)Nc2c(C)c(-c3cnc(C)nc3)nn2-c2ccccc2)[C@H](c2cc(F)cc(F)c2)C1 [Example 14, 1-((3S,4R)-4-(3,5-difluorophenyl)-1-(2-methoxyethyl)pyrrolidin-3-yl)-3-(4-methyl-3-(2-methylpyrimidin-5-yl)-1-phenyl-1H-pyrazol-5-yl)urea] | 98.5 POC | 100.5 POC | 115.5 POC | 99.5 POC | 93 POC | 115 POC | 96.5 POC | 98 POC | 102.5 POC | 97 POC | 93.5 POC | 105.5 POC | 53 POC | 108.5 POC | 113.5 POC | 106 POC | 105.5 POC | 99 POC | 92.5 POC | 107 POC | Avg POC (CDK1/cyclinB): 97 POC; Avg POC (AKT3): 104 POC; Avg POC (MuSK): 98.5 POC; Avg POC (EphA2): 96 POC; Avg POC (FGFR1): 101.5 POC; Avg POC (AMPK(A1/B1/G1)): 106.5 POC; Avg POC (IGF-1R Activated): 106 POC; Avg POC (Pim-1): 103.5 POC; Avg POC (PRKG1beta): 101.5 POC; Avg POC (Mer): 78 POC; Avg POC (PTK5): 91 POC; Avg POC (Ron): 104 POC; Avg POC (Ret): 84 POC; Avg POC (IGF-1R): 79 POC; Avg POC (SRPK2): 102.5 POC; Avg POC (VRK2): 109.5 POC; Avg POC (CK1gamma3): 95 POC; Avg POC (FGFR2): 103 POC; Avg POC (CDK7/cyclinH/MAT1): 97.5 POC; Avg POC (ZAP-70): 101 POC
